The values that follow come from patent publication EP1951194B1, “ANTIMICROBIAL DECAPEPTIDE COMPOSITION FOR ORAL HYGIENE” (U.S. Government, as represented by the Secretary of the Army, priority 2005, dated 2018).

Series [1] has as its system oral biofilms. Nature of the series: In vitro plaque assay, viable counts of biofilms on saliva-coated HA disks. Format: cell-based, human salivary bacteria. To be noted: for reduction of viability, intact 66 h-old oral biofilms, compared to water treatment: KSL 200 µg/ml, benzalkonium chloride 0.001%, alone or combined, chlorhexidine positive control. As to the method: In conjunction with the dual flow cell system, a modification of an in vitro plaque model of biofilm formation described by Guggenheim et al. (Guggenheim et al., 2001) was used to determine the effects of tested antimicrobials and other agents on developed oral biofilms (see Appendix I for details). HA disks (Clarkson, south Williamsport, PA) were employed as substrates for salivary bacteria to form biofilms. […] Following 30 min exposure at 37°C, disks were rinsed with 3 × 1 ml of saline and transferred to sterile 15 ml polypropylene tubes containing 1 ml PBS. Biofilm cells adherent to surfaces (after treatment) were recovered by sonicating for 2 min at 5 watts with a Microson ultrasonic cell disrupter equipped with a cup horn (Misonix Inc., Farmingdale, NY). Settings including the time interval used in the sonication were pre-determined empirically to yield maximal recovery of adherent biofilm cells. The effect of KSL on disrupted biofilms was assessed by recovering biofilm cells from HA disks (45 h-old biofilms) through sonication as described above. The detached biofilm cells (in sterile dH2O) were mixed with an equal volume of aqueous KSL to obtain a final peptide concentration of 200 µg/ml, and the reaction mixtures incubated at 37°C for 30 min. The interactions of KSL and suspended biofilm cells were terminated by washing in PBS. To determine the effect of the surface-active agent (benzalkonium chloride; Sigma, St. […] Viable counts of biofilm cells derived from treated disks or disrupted biofilms were determined by spiral plating serially diluted samples onto blood agar plates. […] The 45 h-old biofilms were exposed to chlorhexidine for 1 min, and to water for 30 min at 37°C.

Series [2] concerns oral biofilms. Nature of the series: Live/dead staining of treated biofilms, confocal laser scanning microscopy. Format: cell-based, human salivary bacteria. As to conditions: biofilms on saliva-coated HA surfaces, BacLight, compared to control.
Procedure: Untreated (a-b) and treated (c-d). Images were obtained at intervals of 2 h (a, c) and 8 h (b, d) following inoculation. […] Images of treated versus untreated biofilm cells were obtained at intervals of 2 h (a, d), 6 h (b, e), and 10 h (c, f) after inoculation of salivary bacteria into the parallel chambers of the dual flow cell. […] (C) Confocal images of control and treated biofilms grown on saliva-coated HA surfaces. Live/Dead BacLight™ Viability kit (Molecular Probes, Eugene, OR) was used to assess the viability of biofilm cells exposed to different treatments. BacLight assay solution was prepared as described by the manufacturer and the specimens were stained in dark at room temperature for 15 min. […] An excitation wavelength of 488 nm was used and the fluorescence light emitted was collected by two separate emission filters, 500-530 nm (SYTO 9, live), and 650-710 nm (propidium iodide, dead).
The format of series [3] is physicochemical. As to the method:
The chewing gum formulations were prepared following a procedure described previously. The gum base was heated at a temperature between 50 and 60°C for melting. When the gum base was of the proper fluid consistency, the KSL was added as a fine powder along with the other components. The temperature was kept constant while mixing the components with the gum base in a mortar. After mixing, the homogenous chewing gum mixture was extruded, cut into squares of approximate shape and size and hardened at room temperature overnight. The composition of the gum was as follows: 550 mg of gum base, 420 mg of sorbitol, 10 mg of mannitol, 10 mg of saccharin, and 10, 20 or 30 mg of KSL (total weight: approximately 1 g). In vitro release study of KSL from chewing gums was carried out using an in vitro chewing release apparatus consisting of two modules (AB FIA, Lund, Sweden) (Fig. 1). Each module consists of a thermostatted glass cell in which two vertically oriented pistons holding an upper and a lower chewing plate are mounted. The cells were filled with 40 ml of artificial saliva and the chewing gum was loaded onto the lower chewing surface. […] The released amount of KSL was determined by RP-HPLC.

The format of series [4] is physicochemical. As to conditions: pH 5.7. As to the method:
Test solutions of KSL were prepared using a stock peptide solution of 10 mg/ml in deionized water. The degradation of KSL peptide was investigated in sodium acetate (pH 4), sodium phosphate (pH 7.4) and sodium borate (pH 9) buffers at 0.1 M buffer concentration. Each buffer solution containing 200 µg/ml of KSL was incubated in a temperature-controlled oven at 25, 37 and 55°C, respectively. Samples were taken at pre-determined times and analyzed under HPLC conditions described above. The stability of KSL was studied at 37°C in artificial saliva over a three day period. Artificial saliva was used in the in vitro release studies in an attempt to simulate actual conditions of use. The ingredients of the artificial saliva were as follows: sodium chloride, 0.844 g; potassium chloride, 1.200 g; calcium chloride dihydrate, 0.193 g; magnesium chloride hexahydrate, 0.111 g; potassium phosphate dibasic, 0.342 g; water to make to 1000 ml. The pH was adjusted with hydrochloric acid solution to pH 5.7 ± 0.1 [26].

“Also recorded” adds a separate entry of the source. Ends that are not written are not given here.

`[H]/N=C(\N/C(=N/[H])NCCCCCCNC(=N)NC(=N)Nc1ccc(Cl)cc1)Nc1ccc(Cl)cc1` [chlorhexidine, chlorhexidine digluconate]: the “reduction of viable counts, intact biofilms” value in the series with oral biofilms [1] (intact 45-h-old biofilms, KSL 200 µg/ml 30 min at 37°C, chlorhexidine 0.12% 1 min) is “more reduction in viability; also recorded: larger reduction of viable counts”. The “viability of biofilm cells by live/dead staining” value in the series on oral biofilms [2] is “significantly reduced the viability”.

For “KKVVFKVKFK-NH2 [KSL, Lys-Lys-Val-Val-Phe-Lys-Val-Lys-Phe-Lys-NH2]”, in series [3], the “stability of KSL in the gum formulations manufactured at 50-60°C (HPLC of released KSL)” value is recorded as “only an intact KSL peak”. Moreover, the “degradation in artificial saliva (HPLC)” value in series [4] is reported as “no degradation peak detected”.

Take benzalkonium chloride: the “reduction of viability, intact 66 h-old oral biofilms, compared to water treatment” value in the series with oral biofilms [1] was “less effect on the viability”; in the series with oral biofilms [1] (listed as Bzl), “no significant reductions in viability”. Besides, in the series on oral biofilms [2], the “viability of biofilm cells by live/dead staining” value is “less impact on the viability”.
